BindingDB's records for doi:10.1021/jm049161u (Pfizer, 2006)

Each molecule was assayed against Peptidyl-prolyl cis-trans isomerase FKBP1A (Bos taurus, UniProt P18203) (assay: Peptidyl Prolyl Isomerase (PPIase) Inibition Assay). Settings: not given.
Protocol: (§1) It is based on the observation that chymotrypsin cleaves the C-terminal amide bond only in the trans conformer of the chromogenic substrate. The rapid hydrolysis perturbs the cis-trans conformational equilibrium, which allows one to monitor the PPIase-catalyzed cis-to-trans isomerization. […] Rate constants were generated from the absorbance versus time plots at 8-12 compound concentrations. The Kiapp was determined from the corrected rate constants using an IC50 equation or a tight-binding equation by Morrison.

Sequence of Peptidyl-prolyl cis-trans isomerase FKBP1A (Bos taurus, UniProt P18203) (P18203 whole entry): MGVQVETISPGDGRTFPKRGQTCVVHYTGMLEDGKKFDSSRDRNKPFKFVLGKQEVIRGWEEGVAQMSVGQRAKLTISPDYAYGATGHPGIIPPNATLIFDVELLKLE

| SMILES | Ki [nM] |
| --- | --- |
| COc1cc2c(c(OC)c1)C1C3CCCC(C(=O)N1CC2)N3C(=O)Nc1ccccc1 (configuration not stated) [4,6-dimethoxy-12-oxo-N-phenyl-11,17-diazatetracyclo[11.3.1.0^{2,11}.0^{3,8}]heptadeca-3(8),4,6-triene-17-carboxamide] | 2700 |
| COc1cc2c(c(OC)c1)C1C3CCCC(C(=O)N1CC2)N3C(=O)Nc1ccccc1OC (configuration not stated) [4,6-dimethoxy-N-(2-methoxyphenyl)-12-oxo-11,17-diazatetracyclo[11.3.1.0^{2,11}.0^{3,8}]heptadeca-3(8),4,6-triene-17-carboxamide] | 357 |
| COc1cc2c(c(OC)c1)C1C3CCCC(C(=O)N1CC2)N3C(=O)Nc1ccccc1C (configuration not stated) [4,6-dimethoxy-N-(2-methylphenyl)-12-oxo-11,17-diazatetracyclo[11.3.1.0^{2,11}.0^{3,8}]heptadeca-3(8),4,6-triene-17-carboxamide] | 330 |
| COc1cc2c(c(OC)c1)C1C3CCCC(C(=O)N1CC2)N3C(=O)Nc1ccc([N+](=O)[O-])cc1 (configuration not stated) [4,6-dimethoxy-N-(4-nitrophenyl)-12-oxo-11,17-diazatetracyclo[11.3.1.0^{2,11}.0^{3,8}]heptadeca-3(8),4,6-triene-17-carboxamide] | 772 |
| COc1cc(OC)cc(N2C=C3C4CCCC(C(=O)N3CC2=O)N4C(=O)C(=O)c2cc(OC)c(OC)c(OC)c2)c1 (configuration not stated) [4-(3,5-dimethoxyphenyl)-13-[2-oxo-2-(3,4,5-trimethoxyphenyl)acetyl]-4,7,13-triazatricyclo[7.3.1.0^{2,7}]tridec-2-ene-5,8-dione] | 54 |
| COc1cc2c(c(OC)c1)C1C3CCCC(C(=O)N1CC2)N3C(=O)Nc1ccc(F)cc1F (configuration not stated) [N-(2,4-difluorophenyl)-4,6-dimethoxy-12-oxo-11,17-diazatetracyclo[11.3.1.0^{2,11}.0^{3,8}]heptadeca-3(8),4,6-triene-17-carboxamide] | 7000 |

What follows are molecules tested against Peptidyl-prolyl cis-trans isomerase FKBP1A (Homo sapiens, UniProt P62942) (assay: Peptidyl Prolyl Isomerase (PPIase) Inibition Assay). Settings: pH 8; 15 °C.
Protocol: as §1

Sequence of Peptidyl-prolyl cis-trans isomerase FKBP1A (Homo sapiens, UniProt P62942) (P62942 whole entry): as the sequence (P18203 whole entry) above, with V50M, N95H, I99V counted along it

| SMILES | Ki [nM] |
| --- | --- |
| COc1cc2c(c(OC)c1)C1C3CCCC(C(=O)N1CC2)N3C(=O)C(=O)c1cc(Cl)ccc1Cl (configuration not stated) [1-(2,5-dichlorophenyl)-2-{4,6-dimethoxy-12-oxo-11,17-diazatetracyclo[11.3.1.0^{2,11}.0^{3,8}]heptadeca-3(8),4,6-trien-17-yl}ethane-1,2-dione] | 8100 |
